Legend:
in vivo = conditions: mouse, ip, intraperitoneal, hydrochloride, male ddy mice
[1] = test system: Carrageenin edema in rat's paw; test: Carrageenin Edema Test in Rat's Paw (anti-inflammatory activity, Table 1); assay type: in vivo; conditions: 100 mg/kg oral, hydrochloride, rat
Experimental: An anti-inflammatory activity was measured by orally administering 100 mg/kg of a hydrochloride of the indazole derivative of this invention as set forth in Table 1 to an animal in accordance with the standard method of Carrageenin Edema Test in Rat's Paw described in C. A. Winter et al., Proc. Soc. Exp. Biol. Med., 111, 544 (1962).

## CCN(CC)CCCNc1n[nH]c2c(Cl)cccc12 [(48), 3-(3-Diethylaminopropylamino)-7-chloroindazole]
In vivo
  LD50: 291 mg/kg
[1]
  inhibition in vivo at 100 mg/kg: 57%

## Oc1ccc2[nH]nc(NCCCN3CCC(O)CC3)c2c1 [(83), 3-[3-(4-Hydroxypiperidino)propylamino]-5-hydroxyindazole]
In vivo
  LD50: 134 mg/kg
[1]
  inhibition in vivo at 100 mg/kg: 34%

## CC1CCCCN1CCCn1nc(N)c2cc(O)ccc21 (stereo not drawn) [(37), 1-[3-(2-Methylpiperidino)propyl]-3-amino-5-hydroxyindazole]
In vivo
  LD50: 267 mg/kg
[1]
  inhibition in vivo at 100 mg/kg: 48%

## CC1CCCC(C)N1CCCNc1nn(CCCN2CCOCC2)c2ccc(Cl)cc12 (stereo not drawn) [(116), 1-(3-Morpholinopropyl)-3-[3-(2,6-dimethylpiperidino)propylamino]-5-chloroindazole]
In vivo
  LD50: 311 mg/kg
[1]
  inhibition in vivo at 100 mg/kg: 33%

## CC(C)CC(CCNc1nn(CCC(C)N2CCCCC2)c2ccc(Cl)cc12)N1CCCCC1 (stereo not drawn) [(106), 1-(3-Piperidinobutyl)-3-(3-piperidino-5-methylhexylamino)-5-chloroindazole]
In vivo
  LD50: 228 mg/kg
[1]
  inhibition in vivo at 100 mg/kg: 22%

## CCN(CC)CCCNc1nn(CCC(C)N(C)C)c2ccc(O)cc12 (stereo not drawn) [(138), 1-(3-Dimethylaminobutyl)-3-(3-diethylaminopropylamino)-5-hydroxyindazole]
In vivo
  LD50: 213 mg/kg
[1]
  inhibition in vivo at 100 mg/kg: 29%

## Oc1ccc2c(c1)c(NCCCN1CCC(Cl)CC1)nn2CCCN1CCOCC1 [(147), 1-(3-Morpholinopropyl)-3-[3-(4-chloropiperidino)propylamino]-5-hydroxyindazole]
In vivo
  LD50: 181 mg/kg
[1]
  inhibition in vivo at 100 mg/kg: 29%

## Nc1nn(CCCN2CCCCCC2)c2ccc(O)cc12 [(41), 1-(3-Homopiperidinopropyl)-3-amino-5-hydroxyindazole]
In vivo
  LD50: 340 mg/kg
[1]
  inhibition in vivo at 100 mg/kg: 36%

## Oc1ccc2[nH]nc(NCCCN3CCCCC3)c2c1 [(77), 3-(3-Piperidinopropylamino)-5-hydroxyindazole]
In vivo
  LD50: 251 mg/kg
[1]
  inhibition in vivo at 100 mg/kg: 51%

## CCN(CC)C(CCNc1n[nH]c2ccc(O)cc12)CC(C)C (stereo not drawn) [(76), 3-(3-Diethylamino-5-methylhexylamino)-5-hydroxyindazole]
In vivo
  LD50: 146 mg/kg
[1]
  inhibition in vivo at 100 mg/kg: 46%

## CCN(CC)CCCn1nc(N)c2ccc(O)cc21 [(25), 1-(3-Diethylaminopropyl)-3-amino-6-hydroxyindazole]
In vivo
  LD50: 301 mg/kg
[1]
  inhibition in vivo at 100 mg/kg: 52%

## CCN(CC)CCCNc1n[nH]c2ccc(N)cc12 [(49), 3-(3-Diethylaminopropylamino)-5-aminoindazole]
In vivo
  LD50: 244 mg/kg
[1]
  inhibition in vivo at 100 mg/kg: 55%

## CC1CCCCN1CCCNc1n[nH]c2ccc(O)cc12 (stereo not drawn) [(81), 3-[3-(2-Methylpiperidino)propylamino]-5-hydroxyindazole]
In vivo
  LD50: 147 mg/kg
[1]
  inhibition in vivo at 100 mg/kg: 47%

## Nc1nn(CCN2CCOCC2)c2ccccc12 [(151), 1-(2-Morpholinoethyl)-3-aminoindazole]
In vivo
  LD50: 290 mg/kg
[1]
  inhibition in vivo at 100 mg/kg: 48%

## CC(C)CC(CCNc1nn(CCC(C)N2CCCCC2)c2ccc(O)cc12)N1CCCCC1 (stereo not drawn) [(136), 1-(3-Piperidinobutyl)-3-(3-piperidino-5-methylhexylamino)-5-hydroxyindazole]
In vivo
  LD50: 241 mg/kg
[1]
  inhibition in vivo at 100 mg/kg: 21%

## CC1CCCCN1CCCNc1nn(CCCN2CCCC2)c2ccc(Cl)cc12 (stereo not drawn) [(113), 1-(3-Pyrrolidinopropyl)-3-[3-(2-methylpiperidino)propylamino]-5-chloroindazole]
In vivo
  LD50: 221 mg/kg
[1]
  inhibition in vivo at 100 mg/kg: 31%

## CCN(CC)CCCn1nc(N)c2cc(O)ccc21 [(24), 1-(3-Diethylaminopropyl)-3-amino-5-hydroxyindazole]
In vivo
  LD50: 161 mg/kg
[1]
  inhibition in vivo at 100 mg/kg: 53%

## CC1CCCC(C)N1CCCNc1nn(CCCN2CCOCC2)c2ccc(O)cc12 (stereo not drawn) [(146), 1-(3-Morpholinopropyl)-3-[3-(2,6-dimethylpiperidino)propylamino]-5-hydroxyindazole]
In vivo
  LD50: 198 mg/kg
[1]
  inhibition in vivo at 100 mg/kg: 32%

## Nc1nn(CCCN2CCC(Cl)CC2)c2ccc(Cl)cc12 [(18), 1-[3-(4-Chloropiperidino)propyl]-3-amino-5-chloroindazole]
In vivo
  LD50: 278 mg/kg
[1]
  inhibition in vivo at 100 mg/kg: 66%

## OC1CCN(CCCNc2nn(CCCN3CCOCC3)c3ccc(Cl)cc23)CC1 [(118), 1-(3-Morpholinopropyl)-3-[3-(4-hydroxypiperidino)propylamino]-5-chloroindazole]
In vivo
  LD50: 287 mg/kg
[1]
  inhibition in vivo at 100 mg/kg: 31%

## Nc1nn(CCCN2CCOCC2)c2ccc(O)cc12 [(44), 1-(3-Morpholinopropyl)-3-amino-5-hydroxyindazole]
In vivo
  LD50: 368 mg/kg
[1]
  inhibition in vivo at 100 mg/kg: 46%

## CCN(CC)CCCn1nc(N)c2cc(N)cc(N)c21 [(29), 1-(3-Diethylaminopropyl)-3,5,7-triaminoindazole]
In vivo
  LD50: 104 mg/kg
[1]
  inhibition in vivo at 100 mg/kg: 56%

## Nc1nn(CCCN2CCCCC2)c2ccc(O)cc12 [(33), 1-(3-Piperidinopropyl)-3-amino-5-hydroxyindazole]
In vivo
  LD50: 227 mg/kg
[1]
  inhibition in vivo at 100 mg/kg: 52%

## CCN(CC)CCCn1nc(NCCCCCCN2CCCCC2)c2cc(Cl)ccc21 [(97), 1-(3-Diethylaminopropyl)-3-(6-piperidinohexylamino)-5-chloroindazole]
In vivo
  LD50: 229 mg/kg
[1]
  inhibition in vivo at 100 mg/kg: 22%

## Clc1ccc2c(c1)c(NCCCN1CCCCC1)nn2CCCN1CCCCC1 [(101), 1-(3-Piperidinopropyl)-3-(3-piperidinopropylamino)-5-chloroindazole]
In vivo
  LD50: 211 mg/kg
[1]
  inhibition in vivo at 100 mg/kg: 29%

## Nc1nn(CCCN2CCCC2)c2ccc(Cl)cc12 [(21), 1-(3-Pyrrolidinopropyl)-3-amino-5-chloroindazole]
In vivo
  LD50: 311 mg/kg
[1]
  inhibition in vivo at 100 mg/kg: 39%

## CC(CCNc1n[nH]c2ccc(Cl)cc12)N(C)C (stereo not drawn) [(53), 3-(3-Dimethylaminobutylamino)-5-chloroindazole]
In vivo
  LD50: 313 mg/kg
[1]
  inhibition in vivo at 100 mg/kg: 48%

## Clc1ccc2[nH]nc(NCCCN3CCC(Cl)CC3)c2c1 [(62), 3-[3-(4-Chloropiperidino)propylamino]-5-chloroindazole]
In vivo
  LD50: 312 mg/kg
[1]
  inhibition in vivo at 100 mg/kg: 65%

## CCN(CC)CCCn1nc(NCCC(C)N2CCCCC2)c2cc(O)ccc21 (stereo not drawn) [(129), 1-(3-Diethylaminopropyl)-3-(3-piperidinobutylamino)-5-hydroxyindazole]
In vivo
  LD50: 240 mg/kg
[1]
  inhibition in vivo at 100 mg/kg: 27%

## CCN(CC)CCCNc1n[nH]c2ccc(O)cc12 [(68), 3-(3-Diethylaminopropylamino)-5-hydroxyindazole]
In vivo
  LD50: 352 mg/kg
[1]
  inhibition in vivo at 100 mg/kg: 52%

## CC(CCNc1n[nH]c2ccc(Cl)cc12)N1CCCCC1 (stereo not drawn) [(57), 3-(3-Piperidinobutylamino)-5-chloroindazole]
In vivo
  LD50: 173 mg/kg
[1]
  inhibition in vivo at 100 mg/kg: 54%

## CCN(CC)CCCNc1nn(CCCN2CCOCC2)c2ccc(O)cc12 [(145), 1-(3-Morpholinopropyl)-3-(3-diethylaminopropylamino)-5-hydroxyindazole]
In vivo
  LD50: 211 mg/kg
[1]
  inhibition in vivo at 100 mg/kg: 30%

## CCN(CC)C(CCNc1nn(CCC(C)N(C)C)c2ccc(Cl)cc12)CC(C)C (stereo not drawn) [(111), 1-(3-Dimethylaminobutyl)-3-(3-diethylamino-5-methylhexylamino)-5-chloroindazole]
In vivo
  LD50: 314 mg/kg
[1]
  inhibition in vivo at 100 mg/kg: 22%

## CC1CCCC(C)N1CCCNc1n[nH]c2ccc(O)cc12 (stereo not drawn) [(82), 3-[3-(2,6-Dimethylpiperidino)propylamino]-5-hydroxyindazole]
In vivo
  LD50: 230 mg/kg
[1]
  inhibition in vivo at 100 mg/kg: 30%

## CCN(CC)CCCNc1nn(CCCN(CC)CC)c2ccc(N)cc12 [(93), 1-(3-Diethylaminopropyl)-3-(3-diethylaminopropylamino)-5-aminoindazole]
In vivo
  LD50: 191 mg/kg
[1]
  inhibition in vivo at 100 mg/kg: 28%

## CC(CCn1nc(N)c2cc(Cl)ccc21)N(C)C (stereo not drawn) [(9), 1-(3-Dimethylaminobutyl)-3-amino-5-chloroindazole]
In vivo
  LD50: 113 mg/kg
[1]
  inhibition in vivo at 100 mg/kg: 37%

## CC(C)CC(CCNc1n[nH]c2ccc(Cl)cc12)N1CCCCC1 (stereo not drawn) [(58), 3-(3-Piperidino-5-methylhexylamino)-5-chloroindazole]
In vivo
  LD50: 180 mg/kg
[1]
  inhibition in vivo at 100 mg/kg: 40%

## Oc1ccc2[nH]nc(NCCCN3CCCC3)c2c1 [(87), 3-(3-Pyrrolidinopropylamino)-5-hydroxyindazole]
In vivo
  LD50: 238 mg/kg
[1]
  inhibition in vivo at 100 mg/kg: 38%

## CCN(CC)CCCNc1n[nH]c2ccc(OC)cc12 [(50), 3-(3-Diethylaminopropylamino)-5-methoxyindazole]
In vivo
  LD50: 200 mg/kg
[1]
  inhibition in vivo at 100 mg/kg: 52%

## Nc1nn(CCCN2CCCCCC2)c2ccc(Cl)cc12 [(19), 1-(3-Homopiperidinopropyl)-3-amino-5-chloroindazole]
In vivo
  LD50: 251 mg/kg
[1]
  inhibition in vivo at 100 mg/kg: 38%

## CCN(CC)CCCNc1n[nH]c2cccc(Cl)c12 [(45), 3-(3-Diethylaminopropylamino)-4-chloroindazole]
In vivo
  LD50: 271 mg/kg
[1]
  inhibition in vivo at 100 mg/kg: 61%

## c1ccc2c(c1)c(NCCCN1CCOCC1)nn2CCCN1CCCCC1 [(160), 1-(3-Piperidinopropyl)-3-(3-morpholinopropylamino)indazole]
In vivo
  LD50: 244 mg/kg
[1]
  inhibition in vivo at 100 mg/kg: 39%

## CC(C)CC(CCNc1n[nH]c2ccc(O)cc12)N1CCCCC1 (stereo not drawn) [(80), 3-(3-Piperidino-5-methylhexylamino)-5-hydroxyindazole]
In vivo
  LD50: 332 mg/kg
[1]
  inhibition in vivo at 100 mg/kg: 32%

## CC(CCNc1nn(CCCN2CCCCC2)c2ccc(Cl)cc12)N1CCCCC1 (stereo not drawn) [(103), 1-(3-Piperidinopropyl)-3-(3-piperidinobutylamino)-5-chloroindazole]
In vivo
  LD50: 261 mg/kg
[1]
  inhibition in vivo at 100 mg/kg: 29%

## CC(CCNc1nn(CCC(C)N2CCCCC2)c2ccc(O)cc12)N(C)C (stereo not drawn) [(137), 1-(3-Piperidinobutyl)-3-(3-dimethylaminobutylamino)-5-hydroxyindazole]
In vivo
  LD50: 258 mg/kg
[1]
  inhibition in vivo at 100 mg/kg: 21%
